One assay deals with SCD1. Briefly: Measurement of SCD1 expression in SZ95-SCD1-HiBit cells (HiBiT assay). In kind it is cell-based, human. On the procedure: SCD1 expression levels in SZ95 cells were quantitated using the HiBiT system (Promega) in which a small peptide sequence (SmBiT) with a larger protein (LgBiT) reconstitutes luciferase activity and can generate a luminescent signal used for quantitation. […] The gRNA targeting sequence used was […] (SEQ ID NO: 3) and the SCD1 insertion oligonucleotide encoding the SmBiT sequence was:
SZ95-SCD1-HiBit cells were seeded in 384-well cell culture white plates at a density of 3000 cells/[…]. Water was added to edge wells to avoid evaporation. Cells were incubated in a humidified incubator with 5% CO2 at 37° C. overnight. Tested compounds were diluted at a ratio of 1:3 in DMSO using an Agilent BRAVO Automated Liquid Handling Platform and, after further serial dilutions, added to cells at final concentrations starting from 18 μM. 2-(3-(3-((2-chloro-3-(trifluoromethyl)benzyl)(2,2-diphenylethyl)amino)propoxy)phenyl)acetic acid was used as a reference compound in each plate. Cells in the assay plate were incubated in a humidified incubator with 5% CO2 at 37° C. for 48h.
The assay plates were removed from the incubator and allowed to equilibrate to room temperature. […] Plates were placed on an orbital shaker at a speed of 300-600 rpm for 10 min at room temperature, and read on an EnVision Plate Reader using luminescence detection with a 1 second read time. […]
(In general: With HiBiT, luminescence reflects the tagged protein that the partner subunit can reach.)

For another assay, the system named is SZ95 sebocytes. The experiment in a line: Sentinel Lipid Assay (SLA), global desaturation index. In kind it is cell-based, human. The protocol: The sentinel lipid assay was used quantify the change in the global desaturation index in SZ95 sebocytes upon administration of Compound 1. The assay measures a smaller subset of lipid analytes in meibum (termed “sentinel lipids”) which would model the global changes the population of both saturated and desaturated lipids in the cells. In order to define this smaller subset of lipids, a complete lipid profile was recorded on dose response curves (eight levels from 4 nM to 10 uM) of Compound 1. […]
A medium throughput assay was created using this reduced set of sentinel lipids. […] Lipids were extracted from the cells using a 1:1 mixture of methylene chloride/methanol containing 10 nM of deuterated standards of triglycerides, which are used as internal standards for quantitating the lipid abundance. […] The abundance of the sentinel lipids and the internal standards are measured using multiple reaction monitor mode (MRM) on a triple quadrupole mass spectrometer. […] In order to compare compounds from multiple batches with one another, the measure raw desaturation index was normalized by dividing it by the desaturation index of the DMSO dosed cells, and all data was assessed as the fraction by which the compound increases the desaturation index above 1. […]

The mark [1] stands for this setting: normalized to reference compound Amax of 100%.

Each structure is given as a SMILES string.

For `O=C(O)Cc1cccc(OCCCN(Cc2cccc(C(F)(F)F)c2Cl)CC(c2ccccc2)c2ccccc2)c1` [Reference, 2-(3-(3-((2-chloro-3-(trifluoromethyl)benzyl)(2,2-diphenylethyl)amino)propoxy)phenyl)acetic acid], the “HiBit Amax” value in the assay on SCD1 (SZ95-SCD1-HiBit cells, 48h, compared to reference compound) is 95.1. Moreover, the “HiBit Normalized Amax” value in the assay with SCD1 (setting [1]) turned out to be 100.0%. Besides, in the assay with SZ95 sebocytes (SZ95 cells, 72h, compared to reference compound), the “SLA Amax” value is recorded as 96.0. Further, the “SLA Normalized Amax” value in the assay with SZ95 sebocytes (setting [1]) is reported as 100.0%.

These data come from patent publication US20240238305A1, “FORMULATIONS OF 3-((3-(4-(2-(ISOBUTYLSULFONYL)PHENOXY)-3-(TRIFLUOROMETHYL)PHENYL)-1,2,4-OXADIAZOL-5-YL)METHYL)-5,5-DIMETHYL-1-(2-MORPHOLINOETHYL)IMIDAZOLIDINE-2,4-DIONE” (Novartis AG, priority 2021, published 2024).
